Data taken from ChEMBL document CHEMBL4004792, “Monascustin, an Unusual γ-Lactam from Red Yeast Rice” (J Nat Prod, 2017).
The source made the active and inactive calls. No cut-off for these calls is given here.

Legend:
[1] = system: Peritoneal macrophage; assay: Inhibition of LPS-stimulated TNFalpha secretion in C57BL6J mouse peritoneal macrophages at 50 uM after 24 hrs; assay type: functional, cell-based
[2] = system: HCT-8; assay: Cytotoxicity against human HCT8 cells at 10 uM after 24 hrs by MTT assay; assay type: functional, cell-based
[3] = system: Bel-7402; assay: Cytotoxicity against human Bel7402 cells at 10 uM after 24 hrs by MTT assay; assay type: functional, cell-based
[4] = system: BGC-823; assay: Cytotoxicity against human BGC823 cells at 10 uM after 24 hrs by MTT assay; assay type: functional, cell-based
[5] = system: A549; assay: Cytotoxicity against human A549 cells at 10 uM after 24 hrs by MTT assay; assay type: functional, cell-based
[6] = system: A2780; assay: Cytotoxicity against human A2780 cells at 10 uM after 24 hrs by MTT assay; assay type: functional, cell-based
[7] = molecular target: Histone deacetylase 1 (Homo sapiens, UniProt Q13547); assay: Inhibition of human HDAC1 using H3(1-21)K9 after 60 mins by fluorescence assay
Sequence of Histone deacetylase 1 (Q13547 whole entry): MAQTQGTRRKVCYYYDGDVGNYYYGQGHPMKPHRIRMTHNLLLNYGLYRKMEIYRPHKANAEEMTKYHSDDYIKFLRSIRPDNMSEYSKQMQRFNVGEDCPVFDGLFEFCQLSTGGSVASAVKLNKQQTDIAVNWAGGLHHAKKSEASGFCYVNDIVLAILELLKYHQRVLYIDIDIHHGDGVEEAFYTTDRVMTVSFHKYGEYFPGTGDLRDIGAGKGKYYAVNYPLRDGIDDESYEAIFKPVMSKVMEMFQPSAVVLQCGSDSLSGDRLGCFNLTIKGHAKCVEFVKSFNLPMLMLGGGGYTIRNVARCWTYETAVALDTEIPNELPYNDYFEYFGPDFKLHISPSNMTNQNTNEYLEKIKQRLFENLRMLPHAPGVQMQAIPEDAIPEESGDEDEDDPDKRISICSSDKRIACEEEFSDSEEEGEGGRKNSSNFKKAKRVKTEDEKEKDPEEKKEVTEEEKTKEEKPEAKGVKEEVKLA

SMILES: CC(C)C[C@@]1(C(N)=O)NC(=O)C[C@]1(C)O
- inhibition [1]: inactive
- Activity [2]: inactive
- Activity [3]: inactive
- Activity [4]: inactive
- Activity [5]: inactive
- Activity [6]: inactive
- IC50 [7]: 3.7 µM
